BindingDB's records for doi:10.1016/j.chembiol.2014.12.015 (University of Florida College of Medicine, 2015)

Legend:
Test in all cases: HDAC Activity Assays
[1] = biological target: Histone deacetylase 3/Nuclear receptor corepressor 2 [395-498] (Homo sapiens, UniProt O15379)
Experimental: (§1) The enzyme activities were initially tested in a serial dilution of each HDAC using the HDAC-Glo I/II reagents (Promega) according to the manufacturer s protocol. Luminescence was detected using the BMG POLARstar Omega microplate reader. A concentration of each HDAC within the linear response region was used for assaying inhibition of HDAC activity by UF010 and analogs. Each compound was tested in 10-point dose-response assay in triplicate.

[2] = biological target: Histone deacetylase 2/Nuclear receptor corepressor 2 [395-498] (Homo sapiens, UniProt Q92769)
Histone deacetylase 2/Nuclear receptor corepressor 2 [395-498], sequence (Q92769 whole entry): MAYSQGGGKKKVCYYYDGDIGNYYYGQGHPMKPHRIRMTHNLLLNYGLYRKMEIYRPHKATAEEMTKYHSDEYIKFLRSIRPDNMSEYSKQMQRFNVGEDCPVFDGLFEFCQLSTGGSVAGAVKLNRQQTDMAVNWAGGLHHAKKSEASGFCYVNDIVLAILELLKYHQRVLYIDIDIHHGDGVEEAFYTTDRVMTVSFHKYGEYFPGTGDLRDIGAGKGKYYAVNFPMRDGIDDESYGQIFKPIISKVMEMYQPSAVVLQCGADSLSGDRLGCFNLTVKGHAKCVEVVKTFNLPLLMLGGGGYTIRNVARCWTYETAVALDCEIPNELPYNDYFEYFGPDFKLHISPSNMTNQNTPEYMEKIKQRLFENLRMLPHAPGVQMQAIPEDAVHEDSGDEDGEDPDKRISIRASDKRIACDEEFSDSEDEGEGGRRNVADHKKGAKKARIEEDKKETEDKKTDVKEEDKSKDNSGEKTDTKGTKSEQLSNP
Histone deacetylase 2/Nuclear receptor corepressor 2 [395-498], sequence (Q9Y618 395-498, further chain): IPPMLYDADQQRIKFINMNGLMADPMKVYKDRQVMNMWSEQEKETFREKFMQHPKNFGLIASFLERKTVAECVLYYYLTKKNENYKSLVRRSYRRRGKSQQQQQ
Experimental: as §1

[3] = biological target: Histone deacetylase 1/Nuclear receptor corepressor 2 [395-498] (Homo sapiens, UniProt Q13547)
Histone deacetylase 1/Nuclear receptor corepressor 2 [395-498], sequence (Q13547 whole entry): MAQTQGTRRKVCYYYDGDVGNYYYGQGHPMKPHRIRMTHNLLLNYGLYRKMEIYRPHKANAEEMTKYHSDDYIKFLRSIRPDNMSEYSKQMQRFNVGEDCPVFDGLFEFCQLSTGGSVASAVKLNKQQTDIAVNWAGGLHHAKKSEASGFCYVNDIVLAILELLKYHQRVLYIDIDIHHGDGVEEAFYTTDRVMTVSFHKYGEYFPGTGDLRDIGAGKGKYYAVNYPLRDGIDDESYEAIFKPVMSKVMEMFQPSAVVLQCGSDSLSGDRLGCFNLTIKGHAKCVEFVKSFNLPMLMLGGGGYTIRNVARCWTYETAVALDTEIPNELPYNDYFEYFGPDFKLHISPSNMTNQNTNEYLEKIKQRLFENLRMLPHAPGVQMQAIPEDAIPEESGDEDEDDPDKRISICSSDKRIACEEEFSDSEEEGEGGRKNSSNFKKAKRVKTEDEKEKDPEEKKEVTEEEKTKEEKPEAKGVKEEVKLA
Histone deacetylase 1/Nuclear receptor corepressor 2 [395-498], sequence (Q9Y618 395-498, further chain): as the sequence (Q9Y618 395-498, further chain) above
Experimental: as §1

Histone deacetylase 8 = biological target: T1, Histone deacetylase 8 (Homo sapiens, UniProt Q9BY41)
T1 sequence (Q9BY41 whole entry): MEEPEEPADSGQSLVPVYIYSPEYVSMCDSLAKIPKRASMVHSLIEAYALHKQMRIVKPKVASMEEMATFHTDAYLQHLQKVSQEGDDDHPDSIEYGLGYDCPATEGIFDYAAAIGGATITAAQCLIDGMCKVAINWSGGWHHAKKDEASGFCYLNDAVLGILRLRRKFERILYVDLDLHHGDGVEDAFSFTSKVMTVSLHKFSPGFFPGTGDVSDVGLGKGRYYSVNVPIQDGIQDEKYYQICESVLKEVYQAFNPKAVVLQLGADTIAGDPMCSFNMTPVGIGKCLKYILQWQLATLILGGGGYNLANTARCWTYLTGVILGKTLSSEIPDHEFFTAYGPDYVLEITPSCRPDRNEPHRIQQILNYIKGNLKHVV
Experimental: as §1

Histone deacetylase 6 = biological target: T2, Histone deacetylase 6 (Homo sapiens, UniProt Q9UBN7)
T2 sequence (Q9UBN7 whole entry): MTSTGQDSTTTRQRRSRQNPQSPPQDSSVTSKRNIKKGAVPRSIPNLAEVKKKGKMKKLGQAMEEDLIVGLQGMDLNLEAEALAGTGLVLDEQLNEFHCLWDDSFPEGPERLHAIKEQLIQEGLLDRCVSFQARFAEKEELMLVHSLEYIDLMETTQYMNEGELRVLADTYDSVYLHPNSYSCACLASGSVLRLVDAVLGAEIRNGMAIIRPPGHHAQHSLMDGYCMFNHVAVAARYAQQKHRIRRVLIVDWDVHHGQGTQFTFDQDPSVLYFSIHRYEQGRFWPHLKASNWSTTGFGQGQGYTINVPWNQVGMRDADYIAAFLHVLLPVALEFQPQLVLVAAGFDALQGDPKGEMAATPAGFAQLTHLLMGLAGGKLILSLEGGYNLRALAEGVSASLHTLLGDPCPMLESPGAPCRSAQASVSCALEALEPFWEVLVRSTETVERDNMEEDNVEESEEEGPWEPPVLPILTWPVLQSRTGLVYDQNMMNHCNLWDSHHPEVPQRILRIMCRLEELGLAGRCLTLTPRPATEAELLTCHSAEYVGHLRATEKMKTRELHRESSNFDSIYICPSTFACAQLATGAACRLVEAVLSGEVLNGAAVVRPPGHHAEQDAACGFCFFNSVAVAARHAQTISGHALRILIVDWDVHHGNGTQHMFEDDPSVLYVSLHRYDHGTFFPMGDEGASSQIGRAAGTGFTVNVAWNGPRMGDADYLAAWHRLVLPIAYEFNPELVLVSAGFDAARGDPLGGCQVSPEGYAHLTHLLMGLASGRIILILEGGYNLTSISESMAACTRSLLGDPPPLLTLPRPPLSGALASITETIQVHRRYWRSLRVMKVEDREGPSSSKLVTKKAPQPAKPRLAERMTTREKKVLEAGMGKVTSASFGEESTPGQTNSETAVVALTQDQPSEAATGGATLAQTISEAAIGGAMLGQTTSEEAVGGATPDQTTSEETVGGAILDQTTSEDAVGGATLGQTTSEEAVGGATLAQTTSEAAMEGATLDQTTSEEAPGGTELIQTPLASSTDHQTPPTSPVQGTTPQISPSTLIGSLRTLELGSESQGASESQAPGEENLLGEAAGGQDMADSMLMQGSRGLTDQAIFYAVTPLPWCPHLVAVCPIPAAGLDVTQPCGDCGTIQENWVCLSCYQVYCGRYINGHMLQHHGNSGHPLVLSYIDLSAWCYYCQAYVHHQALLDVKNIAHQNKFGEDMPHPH
Experimental: as §1

Histone deacetylase 3/Nuclear receptor corepressor 2 [395-498], sequence (O15379 whole entry): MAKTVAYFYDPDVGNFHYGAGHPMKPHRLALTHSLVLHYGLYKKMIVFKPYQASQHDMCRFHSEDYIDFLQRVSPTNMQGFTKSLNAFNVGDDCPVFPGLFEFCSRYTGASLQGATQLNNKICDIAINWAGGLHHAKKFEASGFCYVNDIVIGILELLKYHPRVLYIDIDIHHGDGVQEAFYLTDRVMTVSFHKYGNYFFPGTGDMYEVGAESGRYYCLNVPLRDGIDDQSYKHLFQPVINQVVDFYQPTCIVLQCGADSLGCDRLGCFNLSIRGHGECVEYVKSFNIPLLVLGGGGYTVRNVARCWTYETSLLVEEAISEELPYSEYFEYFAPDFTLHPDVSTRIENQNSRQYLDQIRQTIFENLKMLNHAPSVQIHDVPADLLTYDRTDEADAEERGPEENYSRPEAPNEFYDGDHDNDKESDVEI
Histone deacetylase 3/Nuclear receptor corepressor 2 [395-498], sequence (Q9Y618 395-498, further chain): as the sequence (Q9Y618 395-498, further chain) above

SMILES | IC50 [1] [µM] | IC50 [2] [µM] | IC50 [3] [µM] | IC50 (Histone deacetylase 8) [µM] | IC50 (Histone deacetylase 6) [µM]
CCCCNNC(=O)c1ccc(Cl)cc1 [SR-3210] | 2.5 | 3.8 | 3 |  | 
CCCCNNC(=O)c1ccc(N(C)C)cc1 [SR-3208] | 0.12 | 0.88 | 0.23 | 0.72 | 9.57
CCCCNNC(=O)c1ccc(OC(F)(F)F)cc1 [SR-3204] | 1.35 | 9.09 | 8.86 |  | 
CCCCNNC(=O)c1ccc(F)cc1 [SR-3203] | 1.78 | 15.1 | 13.2 |  | 
CCCCNNC(=O)c1ccc(OC)cc1 [SR-3206] | 0.43 | 2.52 | 1.91 |  | 
CN(C)c1ccc(C(=O)NNCC2CCCC2)cc1 [SR-3298] | 1.67 | 3.25 | 1.76 |  | 
O=C(NNCCC1CCCC1)c1ccc(Br)cc1 [SR-3297] | 1.08 | 7.65 | 7.4 |  | 
CCCCNNC(=O)c1ccc(Br)cc1 [UF010] |  |  |  | 2.83 | 9.09

The next lines start with the values.

IC50 [1] [µM] | IC50 [2] [µM] | IC50 [3] [µM] | IC50 (Histone deacetylase 8) [µM] | IC50 (Histone deacetylase 6) [µM] | SMILES
0.92 | 1.92 | 1.87 | 4.87 | 5.73 | CCCCCNNC(=O)c1ccc(Br)cc1 [SR-3970]
0.07 | 1.04 | 0.19 | 0.49 | 6.83 | CCCCNNC(=O)c1ccc(C(C)(C)C)cc1 [SR-3302]
> 50 | > 50 | > 50 |  |  | O=C(NNCCCC1CCCC1)c1ccc(Br)cc1 [SR-3365]
20 | 16.1 | 10.3 |  | 39.1 | CCCCCCNNC(=O)c1ccc(Br)cc1 [SR-3367]
6.98 | 28.4 | 8.81 |  |  | O=C(NNCC1CCCC1)c1ccc(Br)cc1 [SR-3364]
